Results on three compounds are retold here after US6610681B1, “Neurotherapeutic clavulanate composition and method” (Revaax Pharmaceuticals, LLC, priority 1999, dated 2003).

In data set [1] the test system is male Syrian golden hamsters. The experiment in a line: golden hamster seed finding model of anxiety. In kind it is in vivo, Mesocricetus auratus. The source says: Clavulanic acid (CLAV) is structurally similar to the beta-lactam antibiotics. A most robust and simple bioassay for screening beta-lactams for CNS activity is the golden hamster seed finding model of anxiety. Briefly, hamsters are deprived of food overnight. The following day they are exposed to the additional stress of being taken from their home cage and placed in a novel environment for a few minutes. This manipulation stimulates the release of the stress hormone cortisol (FIG. 13). During their absence from the home cage, sunflower seeds are hidden under the bedding in one of the corners. When returned to the home cage, hamsters routinely scramble along the walls for 1-2 min before settling down, locating and eating the seeds. However, animals treated with the benzodiazepine anxiolytic chlordiazepoxide find seeds in less than 10 sec.
Male, Syrian golden hamsters (Mesocricetus auratus) (120-130 g) obtained from Harlan Sprague-Dawley Laboratories (Indianapolis, Ind.) were housed individually in Plexiglas cages (24 cm×24 cm×20 cm), maintained on a reverse light:dark cycle (14L: 10D; lights on at 19:00 hr) and provided food and water ad libitum. A range of concentrations of CLAV (saline vehicle, 0.1, 1.0, 10, 100 1,000 ng/kg) were tested in six groups of hamsters (4-8/group)(FIG. 1). All tests were conducted during the dark phase of the circadian cycle under dim red illumination. Prior to testing all animals were fasted for 20-24 hrs. Ninety min after intraperitoneal (IP) injection of drug, animals were taken from their home cage and placed into a holding cage for 2 min. During their absence, six sunflower seeds were buried under the bedding in one corner of their home cage. Animals were placed back into their home cage randomly facing any one of the empty corners and timed for their latency to find the seeds in a five min observation period. Latency times were analyzed with a one-way ANOVA followed by Scheffe's post hoc tests. Assumption of equal variances was tested (Hartley's F-max=2.1 p>0.05)
It was hypothesized that CLAV functioned as an anxiolytic in the seed finding assay by blocking NAALADase activity in the brain. If this notion were true then it would be predicted that drugs known to block NAALADase should also enhance seed finding. To this end, animals were treated with N-acetyl-beta-aspartyl-glutamic acid (beta-NAAG), a competitive inhibitor of NAALADase (Serval et al., 1992) and tested in the seed finding model of anxiety. The study was similar to that outlined in Section I with one notable exception. […] Beta-NAAG (FW 304) was given in a dose of 3 ng in a volume of 1 μl saline ICV. The average adult hamster brain weights ca. 1.2 g of which 22% is extracellular fluid. The estimated beta-NAAG concentration was 11 ng/ml or 36 nM.
Two groups of six animals each were fasted overnight as previously described and tested the following day. One group was treated with beta-NAAG and the other saline vehicle and one hr later timed for latency to find the hidden sunflower seeds. A Student t-test for unpaired data was used for statistical comparisons.

In a further data set the test system is male Wistar rats. Conditions: 10-25 mg/kg, literature; cited from earlier work.
The subject of the next data set is male golden hamsters. Put plainly: resident/intruder paradigm of offensive aggression. Format: in vivo, hamster. The following applies: 3 ng ICV, after the seed finding assay. The source says: Agonistic behavior can be classified as either offensive or defensive aggression (Blanchard and Blanchard, 1977; Adams, […]; Albert and Walsh, 1984). Offensive aggression is characterized by an aggressor initiating an attack on an opponent; while, defensive aggression lacks active approach. Both types of aggression have their own unique neurobehavioral systems. The stimuli that elicit offensive and defense attack are different, as are the sequences of behaviors that accompany each agonistic response. […] Offensive aggression is easily studied using male golden hamsters tested in a resident/intruder paradigm, an established model of offensive aggression (Ferris and Potegal 1988) in the context of defending the home burrow. Placing an unfamiliar male hamster into the home cage of another male hamster elicits a well-defined sequence of agonistic behaviors from the resident that includes offensive aggression.
Hamsters are nocturnal and as such all behavioral tests were performed during the first four hrs of the dark phase under dim red illumination. The resident was scored for offensive aggression, e.g., latency to bite the intruder, the total number of bites, total contact time with the intruder and flank marking over a 10 min test period (Ferris and Potegal, 1988). Flank marking is a form of olfactory communication in which a hamsters arches its back and rubs pheromone producing flank glands against objects in the environment (Johnston, 1986).
Five male golden hamsters (130-140 g) were given IP injections of CLAV (200 μg/kg) and saline vehicle in a volume of ca. 0.2 ml. […] Vehicle and CLAV treatments were counter balanced and randomized so all five animals received each treatment separated by at least 48 hrs. Animals were tested 90 min after treatment over a 10 min observation period. Latencies and contact time were analyzed with a two-way ANOVA. Non-parametric data, i.e., number of bites and flank marks were analyzed by Wilcoxon matched-pairs signed-ranks test.
The animals tested in this study were those used in Section IX. After the seed finding assay, beta-NAAG (n=6) and saline vehicle (n=6) treated animals remained in their home cage and were presented with a smaller, male intruder. The resident was scored for latency to bite, bites, contact time and flank marking over a 10 min observation period. Latency to bite and contact time between treatments were compared with Student t-tests. Non-parametric measures of bites and flank marks for beta-NAAG vs vehicle were compared with Mann-Whitney.

The conditions of data set [2]: in vivo; cited from earlier work.
Data set [3] concerns neurogenic peptidases (e.g., NAALADases). Put plainly: delivery of peptide directly into the brain, behavior. In kind it is in vivo. Conditions: effective amounts directly into the brain.

`CNC1=Nc2ccc(Cl)cc2C(c2ccccc2)=[N+]([O-])C1` [CDP, Chlordiazepoxide]: in data set [1] (benzodiazepine anxiolytic, dose not given), the seed finding time entry was “less than 10 sec”. Moreover, the motor activity entry in the data set with male Wistar rats is on record as “depresses motor activity”.
As to `CC(=O)N[C@@H](CC(=O)N[C@@H](CCC(=O)O)C(=O)O)C(=O)O` [beta-NAAG, N-acetyl-beta-aspartyl-glutamic acid], the “difference in latency to find the seeds vs saline vehicle” value in data set [1] (3 ng in 1 μl ICV, one hr) was “significantly (p<0.001) different”. For the same compound, the “measures of offensive aggression (latency to bite, bites, contact time, flank marking) vs vehicle” value in the data set on male golden hamsters is recorded as “no significant differences”. In data set [2], the “passage of the blood-brain barrier” value was “does not readily cross the blood-brain barrier”.
Consider Ala-D-γ-Glu-Lys-D-alanyl-D-alanine, for which the “behavioral characteristics compared with β-lactam compounds” value in data set [3] is recorded as “produced the same modified behavioral characteristics”.
